Measurements as given in patent US20160158317A1, “Antimicrobial Peptide Variants and Polynucleotides Encoding Same” (Adenium Biotech A/S, priority 2010, published 2016).
Where a SMILES comes first, the peptide text is derived from it. Bridges are numbered along the chain shown (N, C = ends).

assay: Determination of the protein binding (90% serum, 30 kDa filter, HPLC); format: in vitro ADME; details: serum
Description: Protein binding assays were performed as follows. The purified peptides were mixed with 90% serum and centrifuged through a 30 kDa filter. The ultra-filtrate and the non filtrated serum samples were quantified by HPLC measurements and the protein binding was subsequently calculated.

Structure (SMILES)	fraction unbound
CC(C)[C@@H]1NC(=O)CNC(=O)[C@H](CC(N)=O)NC(=O)[C@H](CCCNC(=N)N)NC(=O)[C@H](Cc2ccc(O)cc2)NC(=O)[C@H](C(C)C)NC(=O)[C@@H]2CSSC[C@H](NC(=O)[C@H](C(C)C)NC(=O)[C@H](CCCNC(=N)N)NC1=O)C(=O)N[C@@H](Cc1ccc(O)cc1)C(=O)N[C@@H](CCCNC(=N)N)C(=O)N[C@@H](CCCNC(=N)N)C(=O)N[C@H](C(=O)N[C@@H](CC(N)=O)C(=O)O)CSSC[C@H](NC(=O)[C@H](Cc1ccccc1)NC(=O)CN)C(=O)NCC(=O)N[C@@H](CCCNC(=N)N)C(=O)N[C@@H](C(C)C)C(=O)N2 [compound 61] (H-GFCGRVCVYRNGVRVCYRRCN-OH; disulfide 3-20, 7-16 (inferred); N-terminus and C-terminus assumed)	0.28
CC(C)[C@@H]1NC(=O)CNC(=O)[C@H](CC(N)=O)NC(=O)[C@H](CCCNC(=N)N)NC(=O)[C@H](Cc2ccc(O)cc2)NC(=O)[C@H](C(C)C)NC(=O)[C@@H]2CSSC[C@H](NC(=O)[C@H](C(C)C)NC(=O)[C@H](CCCNC(=N)N)NC1=O)C(=O)N[C@@H](CO)C(=O)N[C@@H](CCCNC(=N)N)C(=O)N[C@@H](CCCNC(=N)N)C(=O)N[C@H](C(=O)N[C@@H](CC(N)=O)C(=O)O)CSSC[C@H](NC(=O)[C@H](Cc1ccccc1)NC(=O)CN)C(=O)N[C@@H](Cc1c[nH]c3ccccc13)C(=O)N[C@@H](CCCCN)C(=O)N[C@@H](C(C)C)C(=O)N2 [compound 68] (H-GFCWKVCVYRNGVRVCSRRCN-OH; disulfide 3-20, 7-16 (inferred); N-terminus and C-terminus assumed)	0.13
CC(C)[C@@H]1NC(=O)CNC(=O)[C@H](CC(N)=O)NC(=O)[C@H](CCCNC(=N)N)NC(=O)[C@H](Cc2ccc(O)cc2)NC(=O)[C@H](C(C)C)NC(=O)[C@@H]2CSSC[C@H](NC(=O)[C@H](C(C)C)NC(=O)[C@H](CCCNC(=N)N)NC1=O)C(=O)N[C@@H](Cc1c[nH]cn1)C(=O)N[C@@H](CCCNC(=N)N)C(=O)N[C@@H](CCCNC(=N)N)C(=O)N[C@H](C(=O)N[C@@H](CC(N)=O)C(=O)O)CSSC[C@H](NC(=O)[C@H](Cc1ccccc1)NC(=O)CN)C(=O)N[C@@H](Cc1c[nH]c3ccccc13)C(=O)N[C@@H](CC(N)=O)C(=O)N[C@@H](C(C)C)C(=O)N2 [compound 70] (H-GFCWNVCVYRNGVRVCHRRCN-OH; disulfide 3-20, 7-16 (inferred); N-terminus and C-terminus assumed)	0.21
CC(C)[C@@H]1NC(=O)CNC(=O)[C@H](CC(N)=O)NC(=O)[C@H](CCCNC(=N)N)NC(=O)[C@H](Cc2ccc(O)cc2)NC(=O)[C@H](C(C)C)NC(=O)[C@@H]2CSSC[C@H](NC(=O)[C@H](C(C)C)NC(=O)[C@H](CCCNC(=N)N)NC1=O)C(=O)N[C@@H](Cc1ccc(O)cc1)C(=O)N[C@@H](CCCNC(=N)N)C(=O)N[C@@H](CCCNC(=N)N)C(=O)N[C@H](C(=O)N[C@@H](CC(N)=O)C(=O)O)CSSC[C@H](NC(=O)[C@H](Cc1ccccc1)NC(=O)CN)C(=O)N[C@@H](Cc1c[nH]c3ccccc13)C(=O)N[C@@H](CCCNC(=N)N)C(=O)N[C@@H](C)C(=O)N2 [compound 72] (H-GFCWRACVYRNGVRVCYRRCN-OH; disulfide 3-20, 7-16 (inferred); N-terminus and C-terminus assumed)	0.03
CC(C)[C@@H]1NC(=O)CNC(=O)[C@H](CC(N)=O)NC(=O)[C@H](CCCNC(=N)N)NC(=O)[C@H](Cc2ccc(O)cc2)NC(=O)[C@H](Cc2c[nH]cn2)NC(=O)[C@@H]2CSSC[C@H](NC(=O)[C@H](C(C)C)NC(=O)[C@H](CCCNC(=N)N)NC1=O)C(=O)N[C@@H](Cc1ccc(O)cc1)C(=O)N[C@@H](CCCNC(=N)N)C(=O)N[C@@H](CCCNC(=N)N)C(=O)N[C@H](C(=O)N[C@@H](CC(N)=O)C(=O)O)CSSC[C@H](NC(=O)[C@H](Cc1ccccc1)NC(=O)CN)C(=O)N[C@@H](Cc1c[nH]c3ccccc13)C(=O)N[C@@H](CCCNC(=N)N)C(=O)N[C@@H](C(C)C)C(=O)N2 [compound 74] (H-GFCWRVCHYRNGVRVCYRRCN-OH; disulfide 3-20, 7-16 (inferred); N-terminus and C-terminus assumed)	0.01
CC(C)[C@@H]1NC(=O)CNC(=O)[C@H](CC(N)=O)NC(=O)[C@H](CCCNC(=N)N)NC(=O)[C@H](Cc2ccc(O)cc2)NC(=O)[C@H](C(C)C)NC(=O)[C@@H]2CSSC[C@H](NC(=O)[C@H](C(C)C)NC(=O)[C@H](CCCNC(=N)N)NC1=O)C(=O)N[C@@H](Cc1c[nH]cn1)C(=O)N[C@@H](CCCNC(=N)N)C(=O)N[C@@H](CCCNC(=N)N)C(=O)N[C@H](C(=O)N[C@@H](CC(N)=O)C(=O)O)CSSC[C@H](NC(=O)[C@H](Cc1ccccc1)NC(=O)CN)C(=O)N[C@@H](Cc1c[nH]c3ccccc13)C(=O)N[C@@H](CCCNC(=N)N)C(=O)N[C@@H](C(C)C)C(=O)N2 [compound 76] (H-GFCWRVCVYRNGVRVCHRRCN-OH; disulfide 3-20, 7-16 (inferred); N-terminus and C-terminus assumed)	0.08
CC(C)[C@@H]1NC(=O)[C@@H]2CSSC[C@H](NC(=O)[C@H](C(C)C)NC(=O)[C@H](CCCNC(=N)N)NC(=O)[C@H](CCCCN)NC(=O)CNC(=O)[C@H](CC(N)=O)NC(=O)[C@H](CCCNC(=N)N)NC(=O)[C@H](Cc3ccc(O)cc3)NC1=O)C(=O)N[C@@H](Cc1ccc(O)cc1)C(=O)N[C@@H](CCCNC(=N)N)C(=O)N[C@@H](CCCNC(=N)N)C(=O)N[C@H](C(=O)N[C@@H](CC(N)=O)C(=O)O)CSSC[C@H](NC(=O)[C@H](Cc1ccccc1)NC(=O)CN)C(=O)N[C@@H](Cc1c[nH]c3ccccc13)C(=O)N[C@@H](Cc1ccc(O)cc1)C(=O)N[C@@H](C)C(=O)N2 [compound 80] (H-GFCWYACVYRNGKRVCYRRCN-OH; disulfide 3-20, 7-16 (inferred); N-terminus and C-terminus assumed)	0.04
CC(C)[C@@H]1NC(=O)CNC(=O)[C@H](CC(N)=O)NC(=O)[C@H](CCCNC(=N)N)NC(=O)[C@H](CCCCN)NC(=O)[C@H](C(C)C)NC(=O)[C@@H]2CSSC[C@H](NC(=O)[C@H](CO)NC(=O)[C@H](CCCNC(=N)N)NC1=O)C(=O)N[C@@H](Cc1ccc(O)cc1)C(=O)N[C@@H](CCCNC(=N)N)C(=O)N[C@@H](CCCNC(=N)N)C(=O)N[C@H](C(=O)N[C@@H](CC(N)=O)C(=O)O)CSSC[C@H](NC(=O)[C@H](Cc1ccccc1)NC(=O)CN)C(=O)N[C@@H](Cc1c[nH]c3ccccc13)C(=O)N[C@@H](Cc1ccc(O)cc1)C(=O)N[C@@H](C(C)C)C(=O)N2 [compound 87] (H-GFCWYVCVKRNGVRSCYRRCN-OH; disulfide 3-20, 7-16 (inferred); N-terminus and C-terminus assumed)	0.07
CC(C)[C@@H]1NC(=O)CNC(=O)[C@H](CC(N)=O)NC(=O)[C@H](CCCCN)NC(=O)[C@H](Cc2ccc(O)cc2)NC(=O)[C@H](C(C)C)NC(=O)[C@@H]2CSSC[C@H](NC(=O)[C@H](C(C)C)NC(=O)[C@H](CCCNC(=N)N)NC1=O)C(=O)N[C@@H](Cc1c[nH]cn1)C(=O)N[C@@H](CCCNC(=N)N)C(=O)N[C@@H](CCCNC(=N)N)C(=O)N[C@H](C(=O)N[C@@H](CC(N)=O)C(=O)O)CSSC[C@H](NC(=O)[C@H](Cc1ccccc1)NC(=O)CN)C(=O)N[C@@H](Cc1c[nH]c3ccccc13)C(=O)N[C@@H](Cc1ccc(O)cc1)C(=O)N[C@@H](C(C)C)C(=O)N2 [compound 89] (H-GFCWYVCVYKNGVRVCHRRCN-OH; disulfide 3-20, 7-16 (inferred); N-terminus and C-terminus assumed)	0.1
CC(C)[C@@H]1NC(=O)CNC(=O)[C@H](CC(N)=O)NC(=O)[C@H](CCCNC(=N)N)NC(=O)[C@H](Cc2ccc(O)cc2)NC(=O)[C@H](C(C)C)NC(=O)[C@@H]2CSSC[C@H](NC(=O)[C@H](C(C)C)NC(=O)[C@H](CCCNC(=N)N)NC1=O)C(=O)N[C@@H](Cc1c[nH]cn1)C(=O)N[C@@H](CCCNC(=N)N)C(=O)N[C@@H](CCCNC(=N)N)C(=O)N[C@H](C(=O)N[C@@H](CC(N)=O)C(=O)O)CSSC[C@H](NC(=O)[C@H](Cc1ccccc1)NC(=O)[C@@H](N)Cc1c[nH]cn1)C(=O)N[C@@H](Cc1c[nH]c3ccccc13)C(=O)N[C@@H](CC(N)=O)C(=O)N[C@@H](C(C)C)C(=O)N2 [compound 98] (H-HFCWNVCVYRNGVRVCHRRCN-OH; disulfide 3-20, 7-16 (inferred); N-terminus and C-terminus assumed)	0.23
CC(C)[C@@H]1NC(=O)CNC(=O)[C@H](CC(N)=O)NC(=O)[C@H](CCCNC(=N)N)NC(=O)[C@H](Cc2ccc(O)cc2)NC(=O)[C@H](C(C)C)NC(=O)[C@@H]2CSSC[C@H](NC(=O)[C@H](C(C)C)NC(=O)[C@H](CCCNC(=N)N)NC1=O)C(=O)N[C@@H](Cc1c[nH]cn1)C(=O)N[C@@H](CCCNC(=N)N)C(=O)N[C@@H](CCCNC(=N)N)C(=O)N[C@H](C(=O)N[C@@H](CC(N)=O)C(=O)O)CSSC[C@H](NC(=O)[C@H](Cc1ccccc1)NC(=O)[C@@H](N)CCCCN)C(=O)N[C@@H](Cc1c[nH]c3ccccc13)C(=O)N[C@@H](CC(N)=O)C(=O)N[C@@H](C(C)C)C(=O)N2 [compound 100] (H-KFCWNVCVYRNGVRVCHRRCN-OH; disulfide 3-20, 7-16 (inferred); N-terminus and C-terminus assumed)	0.22
CSCC[C@H](N)C(=O)N[C@@H](Cc1ccccc1)C(=O)N[C@H]1CSSC[C@@H](C(=O)N[C@@H](CC(N)=O)C(=O)O)NC(=O)[C@H](CCCNC(=N)N)NC(=O)[C@H](CCCNC(=N)N)NC(=O)[C@H](Cc2c[nH]cn2)NC(=O)[C@@H]2CSSC[C@H](NC(=O)[C@H](C(C)C)NC(=O)[C@H](CC(N)=O)NC(=O)[C@H](Cc3c[nH]c4ccccc34)NC1=O)C(=O)N[C@@H](C(C)C)C(=O)N[C@@H](Cc1ccc(O)cc1)C(=O)N[C@@H](CCCNC(=N)N)C(=O)N[C@@H](CC(N)=O)C(=O)NCC(=O)N[C@@H](C(C)C)C(=O)N[C@@H](CCCNC(=N)N)C(=O)N[C@@H](C(C)C)C(=O)N2 [compound 101] (H-MFCWNVCVYRNGVRVCHRRCN-OH; disulfide 3-20, 7-16 (inferred); N-terminus and C-terminus assumed)	0.19
